Experimental findings from patent publication US20250195513A1, “DEGRADATION OF IRAK4 BY CONJUGATION OF IRAK4 INHIBITORS WITH E3 LIGASE LIGAND AND METHODS OF USE” (BeiGene, Ltd., priority 2022, published 2025) are described below.

The Dmax is the greatest extent of degradation seen. The term DC50 denotes the midpoint of the concentration-degradation curve.

Read-outs that look alike come from different tables or passages of the source.

The target in the assay is T1, IRAK4 (Homo sapiens, UniProt Q9NWZ3).
T1 construct: endogenous in cells; host or cells: Karpas299
T1 sequence (Q9NWZ3 1-460): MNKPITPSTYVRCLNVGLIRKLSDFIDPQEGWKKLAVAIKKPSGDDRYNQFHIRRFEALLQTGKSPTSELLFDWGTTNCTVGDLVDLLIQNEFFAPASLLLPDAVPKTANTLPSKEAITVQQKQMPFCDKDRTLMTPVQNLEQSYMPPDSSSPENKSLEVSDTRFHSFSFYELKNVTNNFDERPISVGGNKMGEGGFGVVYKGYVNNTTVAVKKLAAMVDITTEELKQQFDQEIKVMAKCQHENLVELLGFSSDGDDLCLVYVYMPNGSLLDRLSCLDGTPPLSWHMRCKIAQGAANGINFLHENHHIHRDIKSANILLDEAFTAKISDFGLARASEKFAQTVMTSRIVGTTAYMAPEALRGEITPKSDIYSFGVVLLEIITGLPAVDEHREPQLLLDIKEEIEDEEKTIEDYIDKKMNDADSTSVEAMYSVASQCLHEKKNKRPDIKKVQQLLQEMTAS
The assay can be described thus: IRAK4 Degradation Assay (Karpas299, HTRF/TR-FRET). It counts as cell-based. Put shortly: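 Compound potency as DC50 (IC50) came from four-parameter fits of percent IRAK4 degradation. IRAK4 was measured by HTRF (665/620 nm) in lysates of Karpas299 cells seeded at 0.2 million per well. Cells had been treated with compound dilutions for 5 or 24 h.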
A general note: In TR-FRET formats the signal depends on donor and acceptor labels being close together.

Where [1] appears, read: Karpas-299 cells, 24 h treatment, maximum percentage of degradation, read-out: IRAK4 in Karpas-299 (24 h) Dmax (%).
[2] abbreviates: Karpas-299 cells, 24 h treatment, read-out: IRAK4 in Karpas-299 (24 h) DC50.
The mark [3] stands for this setting: Karpas-299 cells, 5 h treatment, maximum percentage of degradation, read-out: IRAK4 in Karpas-299 (5 h) Dmax (%).
The mark [4] stands for this setting: Karpas-299 cells, 5 h treatment, read-out: IRAK4 in Karpas-299 (5 h) DC50.

`O=C1CC[C@H](c2c(F)cc(N3CC[C@@H](C(=O)N4CCN([C@H]5CC[C@H](n6cc(NC(=O)c7coc(-c8ccnc(NCC9CC9)c8)n7)c(C(F)F)n6)CC5)C(=O)C4)C3)cc2F)C(=O)N1` [Example 101, 2-(2-((cyclopropylmethyl)amino)pyridin-4-yl)-N-(3-(difluoromethyl)-1-((1R,4r)-4-(4-((R)-1-(4-((R)-2,6-dioxopiperidin-3-yl)-3,5-difluorophenyl)pyrrolidine-3-carbonyl)-2-oxopiperazin-1-yl)cyclohexyl)-1H-pyrazol-4-yl)oxazole-4-carboxamide]: the Dmax under setting [1] turned out to be 97%. Besides, the DC50 under setting [2] is 1.2 nM.

In the case of `O=C1CC[C@H](c2c(F)cc(N3CC(C(=O)N4CCN(c5ccc(-n6cc(NC(=O)c7coc(-c8ccnc(NCC9CC9)c8)n7)c(C(F)F)n6)cn5)CC4)C3)cc2F)C(=O)N1` [Example 90], under setting [1], the maximal degradation (Dmax) amounted to 96%. In addition, the DC50 under setting [2] was 3.1 nM.

Regarding `CC(C)(O)c1cc2nn([C@H]3CC[C@H](N4CCN(c5ccc(CCC(=O)NC6CCC(=O)NC6=O)cc5)CC4)CC3)cc2cc1NC(=O)c1ccc2cc(C#N)cnn12` (stereo partly drawn) [Example 440, 3-cyano-N-(2-((1r,4r)-4-(4-(4-(3-((2,6-dioxopiperidin-3-yl)amino)-3-oxopropyl)phenyl)piperazin-1-yl)cyclohexyl)-6-(2-hydroxypropan-2-yl)-2H-indazol-5-yl)pyrrolo[1,2-b]pyridazine-7-carboxamide], the Dmax under setting [1] is 80%. Besides, the DC50 under setting [2] amounted to 183 nM.

Turning to `COc1cc2nn([C@H]3CC[C@H](N4CCN(C(=O)[C@@H]5CCN(c6cc(F)c(N7CCC(=O)NC7=O)c(F)c6)C5)CC4)CC3)cc2cc1NC(=O)c1cccc(C(F)(F)F)n1` [Example 177, N-(2-((1R,4r)-4-(4-((R)-1-(4-(2,4-dioxotetrahydropyrimidin-1(2H)-yl)-3,5-difluorophenyl)pyrrolidine-3-carbonyl)piperazin-1-yl)cyclohexyl)-6-methoxy-2H-indazol-5-yl)-6-(trifluoromethyl)picolinamide], the Dmax is 94% under setting [3] and 97% under setting [1]. In addition, the DC50 was 44 nM under setting [4] and 7.8 nM under setting [2].

On to `O=C1CC[C@H](c2c(F)cc(N3CC(C(=O)N4CCN([C@H]5CC[C@H](n6cc(NC(=O)c7coc(-c8ccnc(NCC(F)(F)F)c8)n7)c(C(F)F)n6)CC5)CC4)C3)cc2F)C(=O)N1` [Example 16, N-(3-(difluoromethyl)-1-((1r,4r)-4-(4-(1-(4-((R)-2,6-dioxopiperidin-3-yl)-3,5-difluorophenyl)azetidine-3-carbonyl)piperazin-1-yl)cyclohexyl)-1H-pyrazol-4-yl)-2-(2-((2,2,2-trifluoroethyl)amino)pyridin-4-yl)oxazole-4-carboxamide], for which the half-maximal degradation concentration (DC50) reads like this: (Degradation (Karpas-299), comparison table, Linker Type B, read-out: Compound (Linker Type B) DC50) 0.67 nM; under setting [4], 5.7 nM; under setting [2], 0.67 nM. Further, the Dmax reads like this: (Degradation (Karpas-299), comparison table, Linker Type B, read-out: Compound (Linker Type B) Dmax (%)) 98%; under setting [3], 96%; under setting [1], 98%.

Regarding `COc1cc2nn(C3CCN(C4CN(C(=O)C5CN(c6cc(F)c([C@H]7CCC(=O)NC7=O)c(F)c6)C5)C4)CC3)cc2cc1NC(=O)c1cccc(C(F)(F)F)n1` [Example 41, (R)—N-(2-(1-(1-(1-(4-(2,6-dioxopiperidin-3-yl)-3,5-difluorophenyl)azetidine-3-carbonyl)azetidin-3-yl)piperidin-4-yl)-6-methoxy-2H-indazol-5-yl)-6-(trifluoromethyl)picolinamide], under setting [1], the Dmax stood at 95%. In addition, under setting [2], the DC50 was found to be 1.1 nM.

For `O=C1CCC(c2ccc(N3CC(C(=O)N4CCN([C@H]5CC[C@H](n6cc(NC(=O)c7coc(-c8ccnc(NCC(F)(F)F)c8)n7)c(C(F)F)n6)CC5)CC4)C3)cc2)C(=O)N1` (stereo partly drawn) [Example 175, N-(3-(difluoromethyl)-1-((1r,4r)-4-(4-(1-(4-(2,6-dioxopiperidin-3-yl)phenyl)azetidine-3-carbonyl)piperazin-1-yl)cyclohexyl)-1H-pyrazol-4-yl)-2-(2-((2,2,2-trifluoroethyl)amino)pyridin-4-yl)oxazole-4-carboxamide], the Dmax is 88% under setting [3] and 100% under setting [1]. For the same molecule, the DC50 reads like this: under setting [4], 12 nM; under setting [2], 1.7 nM.

As to `CC1(C)OC(c2ccc3cc(C#N)cnn23)=Nc2cc3cn(C4CCN(C5CCN(C(=O)[C@@H]6CCN(c7cc(F)c([C@H]8CCC(=O)NC8=O)c(F)c7)C6)CC5)CC4)nc3cc21` [Example 412, 7-(2-(1′-((R)-1-(4-((R)-2,6-dioxopiperidin-3-yl)-3,5-difluorophenyl)pyrrolidine-3-carbonyl)-[1,4′-bipiperidin]-4-yl)-8,8-dimethyl-2,8-dihydro-[1,3]oxazino[4,5-f]indazol-6-yl)pyrrolo[1,2-b]pyridazine-3-carbonitrile], under setting [1], the Dmax worked out at 5%. Besides, the DC50 under setting [2] is greater than 10000 nM.

For the molecule `NC(=O)c1nn(-c2ccc(N3CCN(C(=O)C4CN(c5ccc(N6CCC(=O)NC6=O)cc5)C4)CC3)nc2)cc1NC(=O)c1coc(-c2ccnc(NCC(F)(F)F)c2)n1` [Example 28, N-(3-carbamoyl-1-(6-(4-(1-(4-(2,4-dioxotetrahydropyrimidin-1(2H)-yl)phenyl)azetidine-3-carbonyl)piperazin-1-yl)pyridin-3-yl)-1H-pyrazol-4-yl)-2-(2-((2,2,2-trifluoroethyl)amino)pyridin-4-yl)oxazole-4-carboxamide], under setting [1], the Dmax worked out at 96%. In addition, under setting [2], the DC50 amounted to 2.5 nM.

As for `COc1cc2nn(C3CCN(C4CN(C(=O)[C@@H]5CCN(c6cc(F)c([C@H]7CCC(=O)NC7=O)c(F)c6)C5)C4)CC3)cc2cc1NC(=O)c1cccc(C(F)(F)F)n1` [Example 42, N-(2-(1-(1-((R)-1-(4-((R)-2,6-dioxopiperidin-3-yl)-3,5-difluorophenyl)pyrrolidine-3-carbonyl)azetidin-3-yl)piperidin-4-yl)-6-methoxy-2H-indazol-5-yl)-6-(trifluoromethyl)picolinamide], the Dmax came out at 83% under setting [3] and 95% under setting [1]. Besides, the DC50 by setting is: under setting [4], 4.9 nM; under setting [2], 2.2 nM.

Turning to `CC1(C)CN(c2cc(F)c([C@H]3CCC(=O)NC3=O)c(F)c2)C[C@@H]1C(=O)N1CCN([C@H]2CC[C@H](n3cc(NC(=O)c4coc(-c5ccnc(NCC(F)(F)F)c5)n4)c(C(F)F)n3)CC2)CC1` [Example 18, N-(3-(difluoromethyl)-1-((1R,4r)-4-(4-((R)-1-(4-((R)-2,6-dioxopiperidin-3-yl)-3,5-difluorophenyl)-4,4-dimethylpyrrolidine-3-carbonyl)piperazin-1-yl)cyclohexyl)-1H-pyrazol-4-yl)-2-(2-((2,2,2-trifluoroethyl)amino)pyridin-4-yl)oxazole-4-carboxamide], the Dmax reads like this: under setting [3], 95%; under setting [1], 97%. Besides, the DC50 by setting is: under setting [4], 100 nM; under setting [2], 9.7 nM.

`CC(C)(O)c1cc2nn([C@H]3CC[C@H](N4CCN(C(=O)[C@@H]5CCN(c6cc(F)c(N7CCC(=O)NC7=O)c(F)c6)C5)CC4)CC3)cc2cc1NC(=O)c1cccc(C(F)(F)F)n1` [Example 115, N-(2-((1R,4r)-4-(4-((R)-1-(4-(2,4-dioxotetrahydropyrimidin-1(2H)-yl)-3,5-difluorophenyl)pyrrolidine-3-carbonyl)piperazin-1-yl)cyclohexyl)-6-(2-hydroxypropan-2-yl)-2H-indazol-5-yl)-6-(trifluoromethyl)picolinamide]: the Dmax under setting [1] was 96%. Moreover, the DC50 under setting [2] came to 3.8 nM.

With `CC(C)(O)c1cc2nc(C3CCN(C4CN(C(=O)[C@@H]5CCN(c6cc(F)c([C@H]7CCC(=O)NC7=O)c(F)c6)C5)C4)CC3)cn2cc1NC(=O)c1cccc(C(F)(F)F)n1` [Example 50, N-(2-(1-(1-((R)-1-(4-((R)-2,6-dioxopiperidin-3-yl)-3,5-difluorophenyl)pyrrolidine-3-carbonyl)azetidin-3-yl)piperidin-4-yl)-7-(2-hydroxypropan-2-yl)imidazo[1,2-a]pyridin-6-yl)-6-(trifluoromethyl)picolinamide], the Dmax runs as follows: under setting [3], 78%; under setting [1], 94%. Also, the DC50 runs as follows: under setting [4], 2.2 nM; under setting [2], 1.5 nM.

Regarding `CC(C)c1cc(-c2nc(C(=O)Nc3cn([C@H]4CC[C@H](N5CCN(C(=O)C6CN(c7cc(F)c([C@H]8CCC(=O)NC8=O)c(F)c7)C6)CC5)CC4)nc3C(F)F)co2)ccn1` [Example 86, N-(3-(difluoromethyl)-1-((1r,4r)-4-(4-(1-(4-((R)-2,6-dioxopiperidin-3-yl)-3,5-difluorophenyl)azetidine-3-carbonyl)piperazin-1-yl)cyclohexyl)-1H-pyrazol-4-yl)-2-(2-isopropylpyridin-4-yl)oxazole-4-carboxamide], the Dmax under setting [1] turned out to be 94%. Also, the half-maximal degradation concentration (DC50) under setting [2] amounted to 8.9 nM.
